Biological target: T1, caspase-6/(VEID)2R110 Michaelis complex (Homo sapiens, UniProt P55212, C163A)
T1 construct: Avi-tagged zymogen C163A-caspase-6 was processed to mature C163A-caspase-6 by the addition of active caspase-3 and caspase-6; made in house
T1 sequence (P55212 24-179 C163A): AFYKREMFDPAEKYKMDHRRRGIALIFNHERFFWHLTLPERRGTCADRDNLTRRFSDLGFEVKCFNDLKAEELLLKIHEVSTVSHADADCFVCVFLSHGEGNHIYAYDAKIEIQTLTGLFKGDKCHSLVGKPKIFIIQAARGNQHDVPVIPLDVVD
T1 sequence (P55212 194-293): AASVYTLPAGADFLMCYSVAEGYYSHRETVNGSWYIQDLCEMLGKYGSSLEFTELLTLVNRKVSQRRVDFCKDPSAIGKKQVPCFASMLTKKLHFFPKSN
Assay: SPR co-injection with (VEID)2R110 over apo- and C163A-caspase-6
Type: binding
Conditions: co-injected with (VEID)2R110, dissociation of both compound and substrate, read-out: apparent KD
Description: For SPR experiments, caspase-6 was cloned to include a C-terminal avi-tag (Avidity) and expressed and purified as above, except that biotin ligase (BirA) was co-expressed during fermentation. […] Avi-tagged zymogen C163A-caspase-6 was processed to mature C163A-caspase-6 by the addition of active caspase-3 and caspase-6. Chip preparation for neutravidin-based capture was performed as previously described using either a Biacore T100 or Biacore 3000 instrument (GE Healthcare). Running buffer was 50 mM HEPES pH 7.2, 100 mM MgSO4, 30 mM NaCl, 1 mM TCEP, 0.01% Triton X-100, 1% PEG-3350, 2.5% DMSO, and the instrument was set for 20 degrees C. After capture one flow cell of apo-caspase-6 was exposed to a continuous flow of 20 µM VEID-FMK. A rise in signal could be detected for the binding/reacting of the VEID-FMK and exposure was continued until no additional rise in response was observed (∼45 minutes) indicating full saturation of all binding sites. There was no observed decrease in signal upon washing, indicating the reaction was irreversible. […] Fluorescent substrates were too limiting in solubility and quantity to be added to the running buffer, so substrates were mixed at a concentration equal to their Kmapp with 3 and injected together over the indicated surfaces. […]

Kd: ~200 nM
Structure (SMILES): COc1ccc(-c2cc(C(=O)N[C@@H](CO)Cc3cccc(C#N)c3)co2)cc1OC [Compound 3]
